Measurements published in US7927785B2, “Methods for in vitro expansion of hematopoietic stem cells” (The Board of Trustees of the University of Illinois, priority 2002, dated 2011).

Columns and labels:
Type in all cases: cell-based
[1] = tested on: adult human bone marrow CD34+ cells; experiment: Phenotypic analysis (FACS) of marrow CD34+ cells after ex vivo culture
Protocol: (§1) To promote cell division of isolated CD34^+ cells, a stroma-free suspension culture was established as previously described (Bazil et al., 1995). Tissue culture dishes (35 mm; Costar, Corning, N.Y.) were seeded with 1×10^5 CD34^+cells/well in 2.5 mL Iscove modified Dulbecco medium (IMDM) (Biowhittaker, Walkersville, Md.) containing 30% FBS and a cocktail of cytokines specifically thought to promote exit from G0/G1 in primitive HSC populations which consisted of 100 ng/mL recombinant stem cell factor (SCF), 100 ng/mL FLT-3 ligand, 100 ng/mL thrombopoetin (TPO) and 50 ng/mL of interleukin (IL)-3, (all from Amgen Inc., Thousand Oaks, Calif.).
(§2) Cells were maintained in the media and incubated at 37° C. in a 100%-humidified atmosphere containing 5% CO2 for 48 hours. After intial 16 hours of incubation cells were exposed to the demethylating agent, 5-aza2′deoxycitidine (5azaD) (Sigma Chemicals, St. Louis, Mo.) at a concentration of 10^−6M. After 48 hours, cells were washed by centrifugation and then equally distributed to new tissue culture dishes in 2.5 mL IMDM supplemented with 30% FBS containing cytokines known to promote terminal differentiation of HSC into multiple hematopoietic lineages. The cocktail of cytokines contained 100 ng/mL of SCF, 50 ng/ml of granulocyte colony-stimulating factor (G-CSF), 50 ng/mL of IL-3, 50 ng/ml of IL-6 and 5 units (U)/mL of recombinant erythropoietin (EPO) (Amgen Inc., Thousand Oaks, Calif.). Cells at this time point were exposed to Trichostatin (TSA) (Sigma Chemical., St. Louis, Mo.) at 5 ng/mL and the culture was continued for an additional 7 days. At the end of the culture period cells were counted for viability by the trypan blue exclusion method using an inverted microscope. 5-fluorouracil (5-FU) (Sigma Chemical., St. Louis, Mo.) was used at a concentration of 200 μg/ml and added at the 16 hour time point instead of 5azaD and the cultures carried on as described above with no addition of TSA.
(§3) The phenotypic characteristics of the CD34^+ cells were analyzed using FACS. After 9 days of culture, expanded marrow CD34^+ cells were analyzed for primitive HSC phenotype, previously defined, by using flow activated-cell sorter (FACS) (Becton Dickinson (BD) FACS Calibur, San Jose, Calif.). Cells were stained with anti-human CD34^+ moAb conjugated either to fluorescein isothiocyanate (FITC) or phycoerythrin (PE) and another moAb including anti-CD38, anti-CD117, anti-CD90. To determine the lineage positive cells a panel of moab all conjugated to FITC (anti-CD2, anti-CD14, anti-CD15, anti-CD19 and anti-GlyA) (all antibodies were purchased from BD) were utilized. All anaylsis were paired with the corresponding matched isotype control of the specific moAb utilized. All staining and washes were performed in DPBS (Biowhittaker, Walkersville Md.) and 0.5% BSA (Sigma, Chemicals Co., St. Louis, Mo.). Immediately prior to FACS anaylsis, […] propidium iodide (PI) (Sigma, Chemicals Co., St. Louis, Mo.) was added for the exclusion of nonviable cells for phenotypic analysis. Using Cell-Quest software (BD), at least 10,000 live cells were acquired for each analysis.

[2] = tested on: adult human bone marrow CD34+ cells; experiment: Colony-forming cell (CFC) assay in methylcellulose
Protocol: Colony-forming cells (CFC) were assayed under standard conditions in semisolid media as previously described (Brandt et al., Blood 94:106-113, 1999). Briefly 1×10^3 primary CD34^+ cells or unfractionated cultured cells exposed to different conditions used following 9 days of culture were plated in duplicate cultures containing 1 ml IMDM with 1.1% methylcellulose, 30% FBS, 5×10^−5 M 2-mercaptoethanol (Methocult, Stem Cell Technologies, Vancouver, BC, Canada), and a cocktail of growth factors including 100 ng/ml of SCF, 5 U/mL of EPO, 50 ng/mL of IL-3, 50 ng/mL of IL-6 and 50 ng/mL of G-CSF (Amgen Inc., Thousand Oaks, Calif.). The cells were plated into 35 mm tissue-culture dishes (Costar), and after 14 days of incubation at 37° C. in a 100%-humidified atmosphere containing 5% CO2, the colonies were scored with an inverted microscope following standard criteria (Breems et al., Leukemia, 8:1095-1104, 1994).

[3] = tested on: adult human bone marrow CD34+ cells; experiment: Colony-forming cell (CFC) assay in methylcellulose; conditions: after 5 days
[4] = tested on: adult human bone marrow CD34+ cells; experiment: Ex vivo expansion culture: cell counts and CD34+CD90+ cell numbers
Protocol: as §1, §2, §3

[5] = 9 days of culture, single agent, % of total cells
[6] = colonies/plate, cells after 9 days with cytokines, mean of 2 ± SEM
[7] = 9 days of culture, single agent
[8] = 9 days with cytokines, mean of 3 ± SEM

SMILES: O=c1[nH]cc(F)c(=O)[nH]1 [5-FU, 5-fluorouracil]
- CD34+ CD90+ % [1, 5]: 1.2%
- CD34+ CKit lo % [1, 5]: 4%
- CD34+ Lin− % [1, 5]: 27%
- CD34+CD38− % [1, 5]: 27%
- Total CD34+ % [1, 5]: 27%
- % of CD34+ cells that were CD90+ ([1]; day 9): 10%
- % of cells that were CD34+ ([1]; day 9): 20%
- assayable hematopoietic progenitor cells ([2]; 9 days with cytokines, compared with primary cells): no assayable hematopoietic progenitor cells
- Total Number Colonies/plate ([2]; cells after 9 days with cytokines, mean of 2 ± SEM): 0
- BFU-E [2, 6]: 0
- CFU-GM [2, 6]: 0
- CFU-Mix [2, 6]: 0
- Plating Efficiencies ([2]; total number of hematopoietic colonies/total cells plated × 100): 0
- assayable hematopoetic progenitor cells [3]: no assayable hematopoetic progenitor cells
- % CD34+ of all cells [4, 7]: 26%
- % CD34+ thy-1+ cells [4, 7]: 1%
- Absolute CD34+ thy-1+ cells ×10^5 [4, 7]: 0.0002 ×10^5
- Absolute CD34 counts ×10^5 [4, 7]: 0.0065 ×10^5
- Fold changes from the original cells ([4]; 9 days of culture, single agent, CD34+CD90+ cells): 0.001 fold
- Total counts ×10^5 ([4]; 9 days of culture, single agent, start 1×10^5 CD34+ cells/well): 0.025 ×10^5
- Absolute CD34+ Number (×10^4) [4, 8]: 0.1 ± 0.0 ×10^4
- Absolute CD34+CD90+ Numbers (×10^4) [4, 8]: 0.0 ×10^4
- Total Mononuclear Cell Number (×10^4) [4, 8]: 0.3 ± 0.0 ×10^4
- CD34+CD90+ cells observed ([4]; by day 9): no CD34^+CD90^+ cells were observed
- Fold Expansion of CD34+CD90+ ([4]; compared to the primary cell numbers, mean of 3 ± SEM): 0.0 fold
- absolute number of CD34+CD90+ cells in the culture ([4]; day 9, from 22,000 at start): 700
